Measurements: patent publication EP0237866A1, “Selective fungicidal use of asymmetric 2-pyridyl phosphoric acid esters” (priority 1986, dated 1987)

Key:
[1] = system: Erysiphe graminis f.sp.hordei; test: Erysiphe test (barley) / protective; format: in vivo; conditions: evaluated 7 days after inoculation
Text: Erysiphe-Test (Gerste) / protektiv
Lösungsmittel: 100 Gewichtsteile Dimethylformamid Emulgator: 0,25 Gewichtsteile Alkylarylpolyglykolether
(§1) Zur Herstellung einer zweckmäßigen Wirkstoffzubereitung vermischt man 1 Gewichtsteil Wirkstoff mit den angegebenen Mengen Lösungsmittel und Emulgator und verdünnt das Konzentrat mit Wasser auf die gewünschte Konzentration.
Zur Prüfung auf protektive Wirksamkeit besprüht man junge Pflanzen mit der Wirkstoffzubereitung taufeucht. Nach Antrocknen des Spritzbelages werden die Pflanzen mit Sporen von Erysiphe graminis f.sp.hordei bestäubt.
Die Pflanzen werden in einem Gewächshaus bei einer Temperatur von ca. 20°C und einer relativen Luftfeuchtigkeit von ca. 80 % aufgestellt, um die Entwicklung von Mehltaupusteln zu begünstigen.
7 Tage nach der Inokulation erfolgt die Auswertung.

Cutinase = molecular target: T1, Cutinase (Fusarium vanettenii, UniProt P00590); test: Cutinase inhibitor test; format: biochemical, Fusarium solani f.sp.pisi; conditions: p-Nitrophenylbutyrat as substrate, 30 min incubation at 30°C, phosphate buffer 0,1 M pH 8 + 0,3% Triton X-100; read-out: I50
T1 construct: Das Enzym Cutinase wird aus Kulturfiltrat von Fusarium solani f.sp.pisi nach Standardmethoden gereinigt; endogenous in cells; host or cells: Culture filtrate of Fusarium solani f.sp. pisi (enzyme secreted by the fungus and purified)
Procedure: Das Enzym Cutinase wird aus Kulturfiltrat von Fusarium solani f.sp.pisi nach Standardmethoden gereinigt und photometrisch mit p-Nitrophenylbutyrat als Substrat getestet (P.E. Kolattukudy, K.E. Espelie, C.L. Soliday (1981), Meth. Enzymol. 71, 652).
Die Inhibitor-Wirkung wird einer beschriebenen Methode folgend bestimmt (W. Köller, C.R. Allan, P.E. Kolattukudy (1982), Phytopathoiopy 72, 1425): Eine geeignete Menge Enzym wird zusammen mit dem Wirkstoff in gewünschter Konzentration in 1 ml Phosphatpuffer (0,1 M; pH 8) + 0,3% (w/v) Triton X-100 bei 30°C inkubiert. Nach 30 Minuten Inkubation wird die enzymatische Restaktivität bestimmt. Anhand einer Dosis-Wirkungs-Beziehung wird der I(50)-Wert (= diejenige Wirkstoff-Konzentration, die zu einer Inhibierung von 50 % führt) ermittelt.

Venturia inaequalis = test: Venturia test (apple) / protective; format: in vivo; conditions: apple plants, protective spray, 5 ppm active compound, evaluated 12 days after inoculation
Text: Venturia-Test (Apfel) / protektiv
Lösungsmittel: 4,7 Gewichtsteile Aceton Emulgator: 0,3 Gewichtsteile Alkylarylpolyglykolether
as §1
Zur Prüfung auf protektive Wirksamkeit bespritzt man junge Pflanzen mit der Wirkstoffzubereitung bis zur Tropfnässe. Nach Antrocknen des Spritzbelages werden die Pflanzen mit einer wäßrigen Konidiensuspension des Apfelschorferregers (Venturia inaequalis) inokuliert und verbleiben dann 1 Tag bei 20°C und 100 X relativer Luftfeuchtigkeit in einer Inkubationskabine.
Die Pflanzen werden dann im Gewächshaus bei 20 °C und einer relativen Luftfeuchtigkeit von ca. 70 % aufgestellt.
12 Tage nach der Inokulation erfolgt die Auswertung.

[2] = protective spray, 0,0025 Gew.-% in the spray liquor

T1 sequence (P00590 32-230): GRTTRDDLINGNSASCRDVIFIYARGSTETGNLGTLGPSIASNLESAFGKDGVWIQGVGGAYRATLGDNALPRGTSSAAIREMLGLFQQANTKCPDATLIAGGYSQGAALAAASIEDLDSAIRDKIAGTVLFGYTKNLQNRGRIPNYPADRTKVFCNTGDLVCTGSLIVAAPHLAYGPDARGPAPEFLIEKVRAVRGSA

SMILES | Befall in % bei einer Wirkstoffkonzentration von 5 ppm (Venturia inaequalis) [%] | Krankheits-befall in % der unbe-handelten Kontrolle [1, 2] | other results
CCOP(=O)(OCC)Oc1nc(Cl)c(Cl)cc1Cl [A, 0,0-Diethyl-0-(3,5,6-trichlor-2-pyridyl)-phosphorsäureester, reference compound] | 74 | – | Krankheits-befall in % der unbe-handelten Kontrolle ([1]; protective spray, 0,005 Gew.-% in the spray liquor): 58,7 % der unbe-handelten Kontrolle; IC50 (Cutinase): 190 nM
CCCCOP(=O)(OCC)Oc1nc(Cl)c(Cl)cc1Cl (centres unmarked) [Beispiel 1, O-n-Butyl-O-ethyl-O-(3,5,6-trichlor-2-pyridyl)-phosphorsiureester] | 27 | – | –
CCCCCCOP(=O)(OCC)Oc1nc(Cl)c(Cl)cc1Cl (centres unmarked) [Beispiel 2] | 11 | – | –
CCCCCCCCOP(=O)(OCC)Oc1nc(Cl)c(Cl)cc1Cl (centres unmarked) [Beispiel 3] | 19 | – | –
CCCCOP(=O)(OC)Oc1nc(Cl)c(Cl)cc1Cl (centres unmarked) [Beispiel 4] | 5 | – | IC50 (Cutinase): 36 nM
CCCCCCOP(=O)(OC)Oc1nc(Cl)c(Cl)cc1Cl (centres unmarked) [Beispiel 5] | 3 | – | –
CCCCCCOP(=O)(OC)Oc1cccc(Cl)n1 (centres unmarked) [Beispiel 7] | – | 37,5 % der unbe-handelten Kontrolle | –
CCCCOP(=O)(OC)Oc1cccc(Cl)n1 (centres unmarked) [Beispiel 8] | – | 37,5 % der unbe-handelten Kontrolle | –
CCCCCCOP(=O)(OC)Oc1ncc(Cl)cc1Cl (centres unmarked) [Beispiel 9] | – | 25,0 % der unbe-handelten Kontrolle | –
CCCCOP(=O)(OC)Oc1ncc(Cl)cc1Cl (centres unmarked) [Beispiel 10] | – | 12,5 % der unbe-handelten Kontrolle | –
CCCOP(=O)(OC)Oc1nc(Cl)c(Cl)cc1Cl (centres unmarked) [Beispiel 12] | – | – | IC50 (Cutinase): 39 nM
